# In paper PMC6943619, “Synthesis and Pharmacological Evaluation of Hybrids Targeting Opioid and Neurokinin Receptors” (Molecules, 2019):
# Where two headings read alike, the source gives them in different places. Where a SMILES comes first, the peptide text is derived from it. Bridges are numbered along the chain shown (N, C = ends). [ ]: non-standard residue; d: D form. Nle = CCCC[C@H](N)C(=O)O
# Tests used:
# DOR = target: T1, DOR (Homo sapiens, UniProt P41143); assay: Calcium mobilization functional assay, agonist mode; type: cell-based; conditions: CHO cells co-expressing DOR and GαqG66Di5, n = 5; for DOR pEC50 (CL95%): Fluo-4 AM calcium signal; for DOR α ± SEM: efficacy (intrinsic activity), Emax relative to DPDPE, mean ± SEM
# T1 construct: expressed in transfected cells; host or cells: CHO cells (University of Ferrara), co-expressing GαqG66Di5
# human NK1 [1] = target: T2, human NK1 (Homo sapiens, UniProt P25103); assay: Calcium mobilization assay, inhibition response experiments against SP; type: cell-based; set-up: expressed in transfected cells; host or cells: CHO cells (gift of Prof. T. Costa, ISS, Rome)
# Procedure: Following aspiration of the loading solution and a washing step, serial dilutions of peptide stock solutions were added.
# (§1) The pharmacological terminology adopted in this paper is consistent with International Union of Basic and Clinical Pharmacology (IUPHAR) recommendations. Concentration–response curves were analyzed by nonlinear regression using Graph Pad Prism 6.0 (La Jolla, CA, USA). […] Concentration–response curves were fitted with the four-parameter logistic nonlinear regression model (1) Effect=baseline+Emax−baseline/1+10^logEC50−X·n where X is the agonist concentration and n is the Hill coefficient. Ligand efficacy was expressed as intrinsic activity (α) calculated as a ratio of the peptide Emax to the Emax of the standard agonist (Supplementary Materials, Figure S7). […] All statistical analyses were performed using Graph Pad Prism 6.0 (La Jolla, CA, USA). Differences between groups were analyzed with one-way ANOVA and a post hoc multiple comparison by the Student–Newman–Keuls test. A probability level of 0.05 or smaller was used to indicate statistical significance.
# human MOR = target: T3, human MOR (Homo sapiens, UniProt P35372); assay: Calcium mobilization functional assay, agonist mode; type: cell-based; conditions: for MOR α ± SEM: efficacy (intrinsic activity), Emax relative to EM-2, mean ± SEM
# T3 construct: expressed in transfected cells; host or cells: CHO cells (University of Ferrara), co-expressing Gαqi5
# human KOR = target: T4, human KOR (Homo sapiens, UniProt P41145); assay: as above; type: cell-based; conditions: for KOR α ± SEM: efficacy (intrinsic activity), Emax relative to dynorphin A, mean ± SEM
# T4 construct: expressed in transfected cells; host or cells: CHO cells (University of Ferrara), co-expressing Gαqi5
# mice = assay: Writhing test (acetic acid, acute pain model); type: in vivo; conditions: 5 mg/kg i.p., single injection 15 min before i.p. acetic acid (0.5%, 10 mL/kg), writhes counted 15 min, saline baseline about 35, average, n = 10
# Procedure: The writhing test was used as an acute pain model. This test involves intraperitoneal (i.p.) injection of acetic acid which results in abdominal constriction, causing the mice to writhe. Peptides or saline (control) were administered i.p. over a concentration range of 0.3 to 5 mg/kg at 15 min before the injection of acetic acid (0.5%, 10 mL/kg). The baseline number of writhes in the saline-treated animals was about 35.
# Peptides or vehicle were administered 15 min before the i.p. injection of acetic acid (0.5%, 10 mL/kg). The number of writhes was determined 5 min after acetic acid injection over a period of 15 min. The data represent mean ± SEM, n = 10.
# Male Balb/c mice (Animal Facility of Nofer Institute of Occupational Medicine, Lodz, Poland) weighing 22–25 g were used in the study. The animals were housed under standard conditions (22 ± 1 °C, 12 h light/dark cycle) with food and water ad libitum for five days before the experiments.
# Antinociceptive activity was assessed by the writhing test. Mice were divided into groups of 10 animals each. A single i.p. injection of saline or a tested compound (at doses 0.3, 1, 3, or 5 mg/kg) was followed (after 15 min) by the i.p. administration of acetic acid (0.65% in 0.9% NaCl, 10 mL/kg) [53]. After 5 min recovery, specific spontaneous behaviors characterized by elongation of the body (“writhes”) were counted for 15 min.
# human NK1 [2] = target: T2, human NK1; assay: Radioligand binding assay, displacement of [3H][Sar9, Met(O2)11]SP; set-up: purchased PerkinElmer (Krakow, Poland); host or cells: CHO cell membranes; conditions: displacement of [3H][Sar9, Met(O2)11]SP from membranes of CHO cells transfected with human NK1 receptor; 50 mM Tris/HCl pH 7.4, 0.5% BSA, peptidase inhibitors, 2 h at 25 °C; mean ± SEM, n ≥ 3; SEM
# Procedure: The binding assay was also used to examine the affinity of the synthesized hybrids for NK1 in commercial membranes of CHO cells stably expressing human NK1.
# To determine the affinity of peptide analogs to respective receptors, competition binding experiments were performed, as described in detail elsewhere.
# Commercial membranes of CHO cells stably expressing either human ORs or NK1 receptor were used. […] Membranes were incubated in a 0.5 mL volume of 50 mM Tris/HCl (pH = 7.4), 0.5% bovine serum albumin (BSA), with a number of peptidase inhibitors (bacitracin, bestatin, captopril) and various concentrations of radioligands for 2 h at 25 °C.
# as §1
# human NK1 [3] = target: T2, human NK1; assay: Calcium mobilization functional assay, agonist mode, CHONK1 cells; type: cell-based; set-up: expressed in transfected cells; host or cells: CHO cells (gift of Prof. T. Costa, ISS, Rome); conditions: for NK1 α ± SEM: efficacy (intrinsic activity), Emax relative to SP
# [4] = CHO cells co-expressing human MOR and Gαqi5, n = 5, SEM
# [5] = CHO cells co-expressing human KOR and Gαqi5, n = 5
# T2 sequence (P25103 whole entry): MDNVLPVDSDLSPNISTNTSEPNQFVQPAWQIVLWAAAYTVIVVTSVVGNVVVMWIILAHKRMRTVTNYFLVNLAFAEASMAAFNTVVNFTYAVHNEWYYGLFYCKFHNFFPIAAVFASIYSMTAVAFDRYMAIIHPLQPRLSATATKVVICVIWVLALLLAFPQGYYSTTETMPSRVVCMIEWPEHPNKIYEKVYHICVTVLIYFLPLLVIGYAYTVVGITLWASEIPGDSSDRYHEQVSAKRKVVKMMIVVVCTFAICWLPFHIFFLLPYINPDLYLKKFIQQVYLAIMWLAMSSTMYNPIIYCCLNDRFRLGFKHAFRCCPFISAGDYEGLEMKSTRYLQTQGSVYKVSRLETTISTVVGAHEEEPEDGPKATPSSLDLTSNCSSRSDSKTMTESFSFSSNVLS
# T3 sequence (P35372 whole entry): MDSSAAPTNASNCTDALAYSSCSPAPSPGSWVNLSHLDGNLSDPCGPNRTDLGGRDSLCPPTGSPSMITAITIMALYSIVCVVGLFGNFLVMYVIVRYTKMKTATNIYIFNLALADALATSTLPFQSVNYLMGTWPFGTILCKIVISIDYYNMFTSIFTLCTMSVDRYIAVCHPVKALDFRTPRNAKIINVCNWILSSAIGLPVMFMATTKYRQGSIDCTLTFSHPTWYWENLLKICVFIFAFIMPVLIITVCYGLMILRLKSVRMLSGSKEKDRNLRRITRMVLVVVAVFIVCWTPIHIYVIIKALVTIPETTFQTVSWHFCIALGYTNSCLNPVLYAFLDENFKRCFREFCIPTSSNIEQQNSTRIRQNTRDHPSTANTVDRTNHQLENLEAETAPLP
# T4 sequence (P41145 whole entry): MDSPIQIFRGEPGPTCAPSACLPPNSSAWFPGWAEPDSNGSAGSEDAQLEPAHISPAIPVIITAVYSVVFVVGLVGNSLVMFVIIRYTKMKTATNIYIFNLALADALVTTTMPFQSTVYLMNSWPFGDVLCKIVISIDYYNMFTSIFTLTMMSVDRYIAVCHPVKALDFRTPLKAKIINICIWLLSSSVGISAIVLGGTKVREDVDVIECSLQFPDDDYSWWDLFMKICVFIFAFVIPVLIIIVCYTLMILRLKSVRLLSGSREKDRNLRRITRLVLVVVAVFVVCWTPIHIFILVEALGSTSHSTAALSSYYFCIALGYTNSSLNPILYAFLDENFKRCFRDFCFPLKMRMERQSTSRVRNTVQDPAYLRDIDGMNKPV
# T1 sequence (P41143 whole entry): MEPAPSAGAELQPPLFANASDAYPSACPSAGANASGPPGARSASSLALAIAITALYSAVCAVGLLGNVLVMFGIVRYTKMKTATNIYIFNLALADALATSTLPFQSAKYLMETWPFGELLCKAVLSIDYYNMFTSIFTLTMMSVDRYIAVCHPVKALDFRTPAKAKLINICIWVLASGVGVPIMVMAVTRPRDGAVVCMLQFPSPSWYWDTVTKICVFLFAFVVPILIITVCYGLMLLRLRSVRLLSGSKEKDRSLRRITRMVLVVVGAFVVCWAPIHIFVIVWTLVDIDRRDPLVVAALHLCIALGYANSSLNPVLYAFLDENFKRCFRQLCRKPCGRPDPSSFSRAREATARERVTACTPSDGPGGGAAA
Structure (SMILES),DOR pEC50 (CL95%) (DOR),DOR α ± SEM (DOR),Kb (human NK1 [1]) [nM],"EC50 (human MOR; CHO cells co-expressing human MOR and Gαqi5, Fluo-4 AM calcium signal, n = 5, read-out: MOR pEC50 (CL95%) (converted)) [nM]","lower potency at MOR as compared with 1 (human MOR; calcium mobilization, from pEC50 values) [fold]","MOR α ± SEM (human MOR; CHO cells co-expressing human MOR and Gαqi5, n = 5)",MOR α ± SEM (human MOR; [4]),"EC50 (human KOR; CHO cells co-expressing human KOR and Gαqi5, Fluo-4 AM calcium signal, n = 5, read-out: KOR pEC50 (CL95%) (converted)) [nM]",KOR α ± SEM (human KOR; [5]),number of writhes (mice),Ki (human NK1 [2]) [nM],"NK1 pEC50 (CL95%) (human NK1 [3]; CHO cells expressing human NK1 (CHONK1), Fluo-4 AM calcium signal, N = 5)","NK1 α ± SEM (human NK1 [3]; CHONK1 cells, N = 5)",EC50 (human KOR) [nM],EC50 (human NK1 [3]) [nM],"lower potency at NK1 than SP (human NK1 [3]; calcium mobilization, CHONK1 cells, from pEC50 values)","NK1 α ± SEM (human NK1 [3]; CHONK1 cells, N = 5, SEM)"
"CCCC[C@H](NC(=O)[C@H](CC(C)C)NC(=O)[C@@H](Cc1c[nH]c2ccccc12)NC(=O)[C@H](Cc1ccccc1)NC(=O)[C@@H](Cc1c[nH]c2ccccc12)NC(=O)[C@H](CC(N)=O)NC(=O)[C@@H]1CC(=O)NCCCC[C@@H](NC(=O)[C@@H](N)Cc2ccc(O)cc2)C(=O)N[C@@H](Cc2ccccc2)C(=O)N[C@@H](Cc2ccccc2)C(=O)N1)C(N)=O [compound 2, Tyr-[D-Lys-Phe-Phe-Asp]-Asn-D-Trp-Phe-D-Trp-Leu-Nle-NH2] (H-Y[dK]FFDN[dW]F[dW]L[Nle]-NH2; lactam 2-5)",Crc incomplete,Crc incomplete,46.8,31.6,30,0.66,0.66 ± 0.04,9.77,0.99 ± 0.05,12.4,10.5 ± 0.6,Inactive,Inactive,–,–,–,–
"CSCC[C@H](NC(=O)[C@H](CC(C)C)NC(=O)CNC(=O)[C@H](Cc1ccccc1)NC(=O)[C@H](Cc1ccccc1)NC(=O)[C@H](CCC(N)=O)NC(=O)[C@@H]1CC(=O)NCCCC[C@@H](NC(=O)[C@@H](N)Cc2ccc(O)cc2)C(=O)N[C@@H](Cc2ccccc2)C(=O)N[C@@H](Cc2ccccc2)C(=O)N1)C(N)=O [compound 4, Tyr-[D-Lys-Phe-Phe-Asp]-Gln-Phe-Phe-Gly-Leu-Met-NH2] (H-Y[dK]FFDQFFGLM-NH2; lactam 2-5)",Crc incomplete,Crc incomplete,–,–,–,–,0.90 ± 0.04,–,0.92 ± 0.05,4.5,15.6 ± 1.23,–,–,14.1,3.55,fourfold,0.96 ± 0.05
